Laboratory results from US11116741B2, “Method for the treatment of valvular heart disease comprising administering a composition comprising sarpogrelate” (CEVA SANTE ANIMALE, priority 2017, dated 2021).
“Also recorded” adds a separate entry of the source.

How the values were obtained:
[1] = Blood 5-HT and urine 5-HIAA concentrations in mice given NdF by mini-osmotic pump; type: in vivo
Description: (§1) These lesions appear as endothelial cells recruitment and migration into the valvular leaflets with intense production of extracellular matrix.
(§2) Before the start of the experiment, baseline systolic blood pressure, heart rate and body weight were measured. […] The dose of sarpogrelate administered was 2 mg/kg/day. The experiment started two days after the subcutaneous implantation so as to allow the activation of the mini-osmotic pump. Systolic blood pressure, heart rate and body weight were measured each week until the end of the experiment. At the term (day 28), urinary samples were collected from mice to determine 5-hydroxy-indol acetic acid concentration (5-HIAA which is a serotonin metabolite).
Then, mice were euthanized using an injection of a […] dose of pentobarbital followed by an intra-cardiac blood puncture and whole blood serotonin concentration was determined.
All plasma was collected and analyzed in a single run.

[2] = Body weight, food intake, water intake, systolic blood pressure and heart rate in the NdF mouse model; type: in vivo, mice; settings: for Water intake: estimation of the water intake per cage per day: g = ml
Description: as §2

mitral valve leaflet = assay: Histological morphometric analysis of mitral valve (thickness, cellularity) in NdF induced mitral remodeling; type: in vivo, mice
Description: as §1, §2
For morphometric analysis, one sagittal section (5 μm in thickness) is obtained after paraffin embedding and stained with hematoxylin and eosin stain. In each section, mitral valves are examined and cellularization counted. Extreme care is taken in sectioning the heart so that the valves are mainly cut transversely (with the attachment sides of the leaflets visible on both ends of the valve).
Valve histological morphometric analysis is performed visually using a microscope (Leica DM750®, Germany) with a 40× calibrated objective connected to a camera and a data acquisition and analysis system (Leica/Microsystems®LAS V4.8) by a single operator. Practically, on each section, the operator applies a large square of 250 μm×250 μm divided in 100 equal parts of 25 μm×25 μm each. For the quantification, the whole mitral valve leaflet section is divided in three equal parts. The proximal region is the one nearest the base cusp, followed by the medial and the distal regions. The proximal, medial and distal parts thicknesses are measured on three distinct sites in each region. The mean result is expressed in μm, in table 8.
The density of endothelial cells is evaluated in proximal, medial and distal regions. The numbers of cells is determined on a leaflet length of 25×4 μm (100 μm2). The result (mean) is expressed in number of cells per 100 μm2.

[3] = target: 5-HT2A receptor compared to the 5-HT2B one (Homo sapiens, UniProt P28223); settings: in words; Life Sci. 73, 193-207; cited from earlier work
Sequence of 5-HT2A receptor compared to the 5-HT2B one (P28223 whole entry): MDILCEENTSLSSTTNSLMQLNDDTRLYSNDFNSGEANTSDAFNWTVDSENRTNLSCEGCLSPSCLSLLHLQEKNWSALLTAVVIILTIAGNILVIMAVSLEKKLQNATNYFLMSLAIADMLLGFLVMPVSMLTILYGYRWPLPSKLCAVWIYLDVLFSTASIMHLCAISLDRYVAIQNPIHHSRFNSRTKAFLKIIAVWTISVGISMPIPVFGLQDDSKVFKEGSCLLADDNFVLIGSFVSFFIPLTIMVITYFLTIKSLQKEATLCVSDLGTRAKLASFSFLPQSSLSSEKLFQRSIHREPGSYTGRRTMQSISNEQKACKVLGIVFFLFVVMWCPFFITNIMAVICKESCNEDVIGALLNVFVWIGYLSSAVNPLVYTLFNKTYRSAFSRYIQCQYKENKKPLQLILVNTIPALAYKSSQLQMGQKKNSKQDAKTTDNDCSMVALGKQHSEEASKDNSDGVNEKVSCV

C[C@H](N)Cc1cccc(C(F)(F)F)c1 [NdF, nordexfenfluramine]
Effect on total blood (plasma) concentration of serotonin (5-HT) ([1]; in words): increases | 5-HIAA ([1]; urine, day 28, mean, NdF 1 mg/kg/day, sarpogrelate 2 mg/kg/day): 10.62 mg/L | 5-HT ([1]; whole blood, day 28, mean, NdF 1 mg/kg/day, sarpogrelate 2 mg/kg/day): 2259.78 µg/L | Body weight ([2]; Week 0 (baseline)): 25.10 g | Heart rate ([2]; Week 0 (baseline)): 539.7 beats/min | Systolic blood pressure ([2]; Week 0 (baseline)): 100.2 mmHg | Body weight ([2]; Week 1): 26.20 g | Food intake: estimation of the food intake for each mouse per week ([2]; Week 1): 32.83 g | Heart rate ([2]; Week 1): 579.5 beats/min | Systolic blood pressure ([2]; Week 1): 108.9 mmHg | Water intake: estimation of the water intake per cage per day ([2]; Week 1): 31.43 g | Food intake: estimation of the food intake for each mouse per week ([2]; Week 2): 30.71 g | Heart rate ([2]; Week 2): 571.8 beats/min | Systolic blood pressure ([2]; Week 2): 97.5 mmHg | Water intake: estimation of the water intake per cage per day ([2]; Week 2): 31.86 g | Body weight ([2]; Week 3): 27.20 g | Food intake: estimation of the food intake for each mouse per week ([2]; Week 3): 35.13 g | Heart rate ([2]; Week 3): 498.0 beats/min | Water intake: estimation of the water intake per cage per day ([2]; Week 3): 32.14 g | Body weight ([2]; Week 4): 26.50 g | Food intake: estimation of the food intake for each mouse per week ([2]; Week 4): 26.38 g | Heart rate ([2]; Week 4): 559.3 beats/min | Systolic blood pressure ([2]; Week 4): 99.5 mmHg | Water intake: estimation of the water intake per cage per day ([2]; Week 4): 33.07 g | Mitral valve thickness (mean) (mitral valve leaflet; day 28, mean of proximal, medial and distal parts, NdF 1 mg/kg/day, sarpogrelate 2 mg/kg/day): 67.467 μm | Endothelial cellularity (mean) (mitral valve leaflet; day 28, mitral valve): 9.988 cells/0.01 mm^2 | Interstitial cellularity (mean) (mitral valve leaflet; day 28, mitral valve): 22.011 cells/0.01 mm^2 | Effect on mitral valve thickness (mitral valve leaflet; in words): massive increase | Effect on valve interstitial cellularity (mitral valve leaflet; in words): increase

COc1cccc(CCc2ccccc2OCC(CN(C)C)OC(=O)CCC(=O)O)c1 (centres unmarked) [sarpogrelate]
Effect on total blood (plasma) concentration of serotonin (5-HT) ([1]; in words): reduces | Effect on urinary 5-HIAA ([1]; in words): reduces | Receptor subtype preference (5-HT2A vs 5-HT2B) [3]: preferably blocking the 5-HT2A receptor | Effect on interstitial migration of endothelial cells (mitral valve leaflet; in words): reduces | Effect on mitral valve thickness (mitral valve leaflet; in words): nearly completely prevented; also recorded: markedly reduces | Effect on valve interstitial cellularity (mitral valve leaflet; in words): prevents the increase
